Experimental data as given in patent publication US20070049564A1 (Wyeth, priority 2005, published 2007).
≈ marks a conversion by molar mass, not a printed value. Read-outs that look alike come from different tables or passages of the source.

How the values were obtained:
E. coli GC 6465 = assay: MIC, broth microdilution; conditions: Escherichia coli
S. pneumoniae+ GC 4465 = assay: MIC, broth microdilution; conditions: Streptococcus pneumoniae
E. coli GC 2233 = assay: MIC, broth microdilution; conditions: Escherichia coli
E. faecalis GC 2265 = assay: MIC, broth microdilution; conditions: Enterococcus faecalis
E. coli GC 2236 = assay: MIC, broth microdilution; conditions: Escherichia coli
S. epidermidis GC 4935 = assay: MIC, broth microdilution; conditions: Staphylococcus epidermidis
E. faecium GC 2243 = assay: MIC, broth microdilution; conditions: Enterococcus faecium
E. coli GC 2272 = assay: MIC, broth microdilution; conditions: Escherichia coli
S. aureus GC 6466 = assay: MIC, broth microdilution; conditions: Staphylococcus aureus
E. faecalis GC 4555 = assay: MIC, broth microdilution; conditions: Enterococcus faecalis
E. coli GC 2234 = assay: MIC, broth microdilution; conditions: Escherichia coli
E. coli = assay: Range of MIC for E. coli strains; conditions: Escherichia coli, 20 h, read-out: Range of MIC, E. coli (Mouse Serum)
S. pyogenes GC 4563 = assay: MIC, broth microdilution; conditions: Streptococcus pyogenes
S. aureus GC 6469 = assay: MIC, broth microdilution; conditions: Staphylococcus aureus
S. aureus GC 1079 = assay: MIC, broth microdilution; conditions: Staphylococcus aureus
S. aureus GC 1131 = assay: MIC, broth microdilution; conditions: Staphylococcus aureus
E. coli GC 1073 = assay: MIC, broth microdilution; conditions: Escherichia coli
Staph. = assay: Range of MIC for Staph. strains, including MRSA; conditions: Staphylococcus aureus
c. albicans GC 3066 = assay: MIC, broth microdilution
S. aureus GC 4536 = assay: MIC, broth microdilution; conditions: Staphylococcus aureus

MIC (E. coli GC 6465; GC6465, read-out: MINIMAL INHIBITORY CONCENTRATION MIC, Human Serum): > 64 µg/mL
MIC (E. coli GC 6465; GC6465, read-out: MINIMAL INHIBITORY CONCENTRATION MIC, Mouse Serum): 2 µg/mL (≈ 2.59 µM)
MIC (E. coli GC 6465; GC6465, read-out: MINIMAL INHIBITORY CONCENTRATION MIC, Water): > 64 µg/mL
MIC (S. pneumoniae+ GC 4465; read-out: MINIMAL INHIBITORY CONCENTRATION MIC, Human Serum): 0.25 µg/mL (≈ 0.324 µM)
MIC (S. pneumoniae+ GC 4465; read-out: MINIMAL INHIBITORY CONCENTRATION MIC, Mouse Serum): 0.25 µg/mL (≈ 0.324 µM)
MIC (S. pneumoniae+ GC 4465; read-out: MINIMAL INHIBITORY CONCENTRATION MIC, Water): 0.25 µg/mL (≈ 0.324 µM)
MIC (E. coli GC 2233; GC2233, read-out: MINIMAL INHIBITORY CONCENTRATION MIC, Human Serum): 16 µg/mL (≈ 20.7 µM)
MIC (E. coli GC 2233; GC2233, read-out: MINIMAL INHIBITORY CONCENTRATION MIC, Mouse Serum): 0.25 µg/mL (≈ 0.324 µM)
MIC (E. coli GC 2233; GC2233, read-out: MINIMAL INHIBITORY CONCENTRATION MIC, Water): 64 µg/mL (≈ 82.9 µM)
MIC (E. faecalis GC 2265; GC2265, read-out: MINIMAL INHIBITORY CONCENTRATION MIC, Human Serum): 1 µg/mL (≈ 1.3 µM)
MIC (E. faecalis GC 2265; GC2265, read-out: MINIMAL INHIBITORY CONCENTRATION MIC, Mouse Serum): 0.5 µg/mL (≈ 0.648 µM)
MIC (E. faecalis GC 2265; GC2265, read-out: MINIMAL INHIBITORY CONCENTRATION MIC, Water): 2 µg/mL (≈ 2.59 µM)
MIC (E. coli GC 2236; GC2236, read-out: MINIMAL INHIBITORY CONCENTRATION MIC, Human Serum): 16 µg/mL (≈ 20.7 µM)
MIC (E. coli GC 2236; GC2236, read-out: MINIMAL INHIBITORY CONCENTRATION MIC, Mouse Serum): 0.25 µg/mL (≈ 0.324 µM)
MIC (E. coli GC 2236; GC2236, read-out: MINIMAL INHIBITORY CONCENTRATION MIC, Water): 64 µg/mL (≈ 82.9 µM)
MIC (S. epidermidis GC 4935; GC4935, read-out: MINIMAL INHIBITORY CONCENTRATION MIC, Human Serum): 0.5 µg/mL (≈ 0.648 µM)
MIC (S. epidermidis GC 4935; GC4935, read-out: MINIMAL INHIBITORY CONCENTRATION MIC, Mouse Serum): 0.5 µg/mL (≈ 0.648 µM)
MIC (S. epidermidis GC 4935; GC4935, read-out: MINIMAL INHIBITORY CONCENTRATION MIC, Water): 1 µg/mL (≈ 1.3 µM)
MIC (E. faecium GC 2243; GC2243, read-out: MINIMAL INHIBITORY CONCENTRATION MIC, Human Serum): 0.25 µg/mL (≈ 0.324 µM)
MIC (E. faecium GC 2243; GC2243, read-out: MINIMAL INHIBITORY CONCENTRATION MIC, Mouse Serum): 0.25 µg/mL (≈ 0.324 µM)
MIC (E. faecium GC 2243; GC2243, read-out: MINIMAL INHIBITORY CONCENTRATION MIC, Water): 0.5 µg/mL (≈ 0.648 µM)
MIC (E. coli GC 2272; GC2272, read-out: MINIMAL INHIBITORY CONCENTRATION MIC, Human Serum): 8 µg/mL (≈ 10.4 µM)
MIC (E. coli GC 2272; GC2272, read-out: MINIMAL INHIBITORY CONCENTRATION MIC, Mouse Serum): 0.25 µg/mL (≈ 0.324 µM)
MIC (E. coli GC 2272; GC2272, read-out: MINIMAL INHIBITORY CONCENTRATION MIC, Water): 64 µg/mL (≈ 82.9 µM)
MIC (S. aureus GC 6466; GC6466, read-out: MINIMAL INHIBITORY CONCENTRATION MIC, Human Serum): 0.12 µg/mL (≈ 0.155 µM)
MIC (S. aureus GC 6466; GC6466, read-out: MINIMAL INHIBITORY CONCENTRATION MIC, Mouse Serum): 0.12 µg/mL (≈ 0.155 µM)
MIC (S. aureus GC 6466; GC6466, read-out: MINIMAL INHIBITORY CONCENTRATION MIC, Water): 0.12 µg/mL (≈ 0.155 µM)
MIC (E. faecalis GC 4555; GC4555, read-out: MINIMAL INHIBITORY CONCENTRATION MIC, Human Serum): 4 µg/mL (≈ 5.18 µM)
MIC (E. faecalis GC 4555; GC4555, read-out: MINIMAL INHIBITORY CONCENTRATION MIC, Mouse Serum): 0.12 µg/mL (≈ 0.155 µM)
MIC (E. faecalis GC 4555; GC4555, read-out: MINIMAL INHIBITORY CONCENTRATION MIC, Water): 2 µg/mL (≈ 2.59 µM)
MIC (E. coli GC 2234; GC2234, read-out: MINIMAL INHIBITORY CONCENTRATION MIC, Human Serum): 16 µg/mL (≈ 20.7 µM)
MIC (E. coli GC 2234; GC2234, read-out: MINIMAL INHIBITORY CONCENTRATION MIC, Mouse Serum): 0.5 µg/mL (≈ 0.648 µM)
MIC (E. coli GC 2234; GC2234, read-out: MINIMAL INHIBITORY CONCENTRATION MIC, Water): 64 µg/mL (≈ 82.9 µM)
MIC (E. coli): 0.25 to 2 µg/mL (≈ 0.324 to 2.59 µM)
MIC (S. pyogenes GC 4563; GC4563, read-out: MINIMAL INHIBITORY CONCENTRATION MIC, Human Serum): 0.12 µg/mL (≈ 0.155 µM)
MIC (S. pyogenes GC 4563; GC4563, read-out: MINIMAL INHIBITORY CONCENTRATION MIC, Mouse Serum): 0.12 µg/mL (≈ 0.155 µM)
MIC (S. pyogenes GC 4563; GC4563, read-out: MINIMAL INHIBITORY CONCENTRATION MIC, Water): 0.12 µg/mL (≈ 0.155 µM)
MIC (S. aureus GC 6469; GC6469, read-out: MINIMAL INHIBITORY CONCENTRATION MIC, Human Serum): 1 µg/mL (≈ 1.3 µM)
MIC (S. aureus GC 6469; GC6469, read-out: MINIMAL INHIBITORY CONCENTRATION MIC, Mouse Serum): 0.5 µg/mL (≈ 0.648 µM)
MIC (S. aureus GC 6469; GC6469, read-out: MINIMAL INHIBITORY CONCENTRATION MIC, Water): 1 µg/mL (≈ 1.3 µM)
MIC (S. aureus GC 1079; GC1079, read-out: MINIMAL INHIBITORY CONCENTRATION MIC, Human Serum): 0.25 µg/mL (≈ 0.324 µM)
MIC (S. aureus GC 1079; GC1079, read-out: MINIMAL INHIBITORY CONCENTRATION MIC, Mouse Serum): 0.25 µg/mL (≈ 0.324 µM)
MIC (S. aureus GC 1079; GC1079, read-out: MINIMAL INHIBITORY CONCENTRATION MIC, Water): 1 µg/mL (≈ 1.3 µM)
MIC (S. aureus GC 1131; GC1131, read-out: MINIMAL INHIBITORY CONCENTRATION MIC, Human Serum): 0.25 µg/mL (≈ 0.324 µM)
MIC (S. aureus GC 1131; GC1131, read-out: MINIMAL INHIBITORY CONCENTRATION MIC, Mouse Serum): 0.25 µg/mL (≈ 0.324 µM)
MIC (S. aureus GC 1131; GC1131, read-out: MINIMAL INHIBITORY CONCENTRATION MIC, Water): 0.25 µg/mL (≈ 0.324 µM)
MIC (E. coli GC 1073; GC1073, read-out: MINIMAL INHIBITORY CONCENTRATION MIC, Human Serum): 32 µg/mL (≈ 41.5 µM)
MIC (E. coli GC 1073; GC1073, read-out: MINIMAL INHIBITORY CONCENTRATION MIC, Mouse Serum): 0.5 µg/mL (≈ 0.648 µM)
MIC (E. coli GC 1073; GC1073, read-out: MINIMAL INHIBITORY CONCENTRATION MIC, Water): 64 µg/mL (≈ 82.9 µM)
MIC (Staph.; MRSA, read-out: Range of MIC, Staph (Mouse Serum)): 0.12 to 2 µg/mL (≈ 0.155 to 2.59 µM)
MIC (Staph.; MRSA, read-out: Range of MIC, Staph (Water)): 0.12 to 2 µg/mL (≈ 0.155 to 2.59 µM)
MIC (Staph.; read-out: Minimum inhibitory concentration (MIC), Staph (Human Serum)): 0.12 to 2 µg/mL (≈ 0.155 to 2.59 µM)
MIC (Staph.; read-out: Minimum inhibitory concentration (MIC), Staph (Water)): 0.12 to 2 µg/mL (≈ 0.155 to 2.59 µM)
MIC (c. albicans GC 3066; Candida albicans, GC3066, read-out: MINIMAL INHIBITORY CONCENTRATION MIC): > 64 µg/mL
MINIMAL INHIBITORY CONCENTRATION MIC (c. albicans GC 3066; Human Serum): >64 UG/ML
MINIMAL INHIBITORY CONCENTRATION MIC (c. albicans GC 3066; Mouse Serum): >64 UG/ML
MIC (S. aureus GC 4536; GC4536, read-out: MINIMAL INHIBITORY CONCENTRATION MIC, Human Serum): 0.25 µg/mL (≈ 0.324 µM)
MIC (S. aureus GC 4536; GC4536, read-out: MINIMAL INHIBITORY CONCENTRATION MIC, Mouse Serum): 0.25 µg/mL (≈ 0.324 µM)
MIC (S. aureus GC 4536; GC4536, read-out: MINIMAL INHIBITORY CONCENTRATION MIC, Water): 0.25 µg/mL (≈ 0.324 µM)
Structure (SMILES): CCCCCCC(=O)OCOC(=O)N(CC(=O)Nc1cc(N(C)C)c2c(c1O)C(=O)C1=C(O)[C@]3(O)C(=O)C(C(N)=O)=C(O)[C@@H](N(C)C)[C@@H]3C[C@@H]1C2)C(C)(C)C [Example 48, ({[(2-{[(5aR,6aS,7S,10aS)-9-(aminocarbonyl)-4,7-bis(dimethylamino)-1,8,10a,11-tetrahydroxy-10,12-dioxo-5,5a,6,6a,7,10,10a,12-octahydrotetracen-2-yl]amino}-2-oxoethyl)(tert-butyl)amino]carbonyl}oxy)methyl heptanoate]
